In patent publication US8912209B2, “Rock inhibitors” (Amakem NV, priority 2010, dated 2014) one finds IC50 data, which are given here for 37 molecules.

Structures are written as SMILES.

One may read the IC50 as the point on the concentration scale where inhibition reaches its midpoint.

One test deals with T1, ROCK II (Homo sapiens, UniProt O75116).
T1 construct: purchased Proqinase
In words: ROCK II kinase inhibition, Method 1 Proqinase setup (33P radioisotopic protein kinase assay). In kind it is biochemical. As to conditions: 33P radioisotopic assay, 1 μM ATP, read-out: IC50 Meth. 1. The procedure: A ^33P radioisotopic protein kinase assay is used to determine the IC50 for inhibiting ROCK II. A final 50 μl reaction cocktail, containing 60 mM HEPES-NaOH (pH 7.5), 3 mM MgCl2, 3 mM MnCl2, 3 μM Na-orthovanadate, 1.2 mM DTT, 1 μM ATP, 50 μg/ml PEG20.000, 1% (v/v) DMSO, 1 μM ATP (approx. 3×10^5 cpm ^33P-γ-ATP), the substrate (Substrate: S6 peptide—2000 ng/well) and recombinant protein kinase (0.5 nM-2.5 ng/well) is mixed on a shaker and incubated at 30° C. for 80 minutes. The reaction is stopped by the addition of 50 μl of a 2% solution of H3PO4 and mixed on a shaker. After washing twice with 200 μl of a 0.9% solution of NaCl, the dry plate is counted.

The next test has as its target T2, ROCKα/ROCKII (Homo sapiens, UniProt O75116).
T2 construct: purchased Upstate Biotechnology 14-451
Description: ROCK inhibition, Method 2 fluorescence polarization (FP) assay, ROCK IMAP Kit. The class given is biochemical. The note with it: 10 μM ATP, read-out: IC50 Meth. 2.

T2 sequence (O75116 whole entry): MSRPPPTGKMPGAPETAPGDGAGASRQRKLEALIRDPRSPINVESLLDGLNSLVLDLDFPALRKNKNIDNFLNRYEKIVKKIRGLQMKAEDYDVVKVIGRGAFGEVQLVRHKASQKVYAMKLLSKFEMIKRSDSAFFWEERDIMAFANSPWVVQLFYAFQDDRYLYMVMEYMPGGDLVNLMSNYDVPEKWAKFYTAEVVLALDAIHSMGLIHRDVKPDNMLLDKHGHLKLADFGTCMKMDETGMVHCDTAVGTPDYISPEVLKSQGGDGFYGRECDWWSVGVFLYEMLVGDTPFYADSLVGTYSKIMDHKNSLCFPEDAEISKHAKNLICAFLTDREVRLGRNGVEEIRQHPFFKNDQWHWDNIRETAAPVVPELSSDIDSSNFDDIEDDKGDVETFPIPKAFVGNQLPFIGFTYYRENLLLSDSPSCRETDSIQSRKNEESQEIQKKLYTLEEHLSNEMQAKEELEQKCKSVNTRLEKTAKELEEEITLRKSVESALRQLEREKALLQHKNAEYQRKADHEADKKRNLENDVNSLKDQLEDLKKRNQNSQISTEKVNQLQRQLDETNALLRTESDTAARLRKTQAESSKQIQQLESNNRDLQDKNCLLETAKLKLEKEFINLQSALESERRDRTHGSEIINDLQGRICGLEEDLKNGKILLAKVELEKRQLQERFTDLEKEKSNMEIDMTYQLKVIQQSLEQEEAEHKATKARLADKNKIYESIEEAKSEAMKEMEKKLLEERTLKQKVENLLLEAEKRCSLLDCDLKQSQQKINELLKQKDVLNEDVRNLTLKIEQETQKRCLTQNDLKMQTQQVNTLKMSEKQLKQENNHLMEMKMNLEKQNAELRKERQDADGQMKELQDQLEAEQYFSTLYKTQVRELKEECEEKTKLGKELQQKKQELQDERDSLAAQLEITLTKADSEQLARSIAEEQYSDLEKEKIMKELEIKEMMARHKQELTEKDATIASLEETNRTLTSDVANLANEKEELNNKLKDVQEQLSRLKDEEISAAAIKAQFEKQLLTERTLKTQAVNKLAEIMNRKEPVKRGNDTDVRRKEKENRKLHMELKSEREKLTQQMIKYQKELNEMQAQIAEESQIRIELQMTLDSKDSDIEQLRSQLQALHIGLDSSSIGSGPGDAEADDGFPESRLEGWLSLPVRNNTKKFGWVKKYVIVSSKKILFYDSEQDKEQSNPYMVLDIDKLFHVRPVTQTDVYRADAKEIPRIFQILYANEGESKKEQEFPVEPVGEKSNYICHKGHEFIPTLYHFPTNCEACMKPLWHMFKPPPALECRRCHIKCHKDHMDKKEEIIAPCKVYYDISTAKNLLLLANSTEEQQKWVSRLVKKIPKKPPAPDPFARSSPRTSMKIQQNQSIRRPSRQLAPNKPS
T1 sequence (O75116 whole entry): as above

For `COC(=O)c1cccc(-c2cc(C(=O)Nc3ccncc3F)ccc2C(C)N)c1` (stereo not drawn) [Compound 5, 2′-(1-Amino-ethyl)-5′-(3-fluoro-pyridin-4-ylcarbamoyl)-biphenyl-3-carboxylic acid methyl ester], the IC50 is 100 to 1000 nM at ROCK II and less than 100 nM at ROCKα/ROCKII. For the molecule `CCOC(=O)c1cccc(-c2cc(C(=O)Nc3ccncc3)ccc2C(C)N)c1` (stereo not drawn) [Compound 8, 2′-(1-Amino-ethyl)-5′-(pyridin-4-ylcarbamoyl)-biphenyl-3-carboxylic acid ethyl ester], the half-maximal inhibitory concentration (IC50) at ROCK II and on ROCKα/ROCKII was less than 100 nM in each case.

Take `CCCOC(=O)c1cccc(-c2cc(C(=O)Nc3ccncc3)ccc2C(C)N)c1` (stereo not drawn) [Compound 11, 2′-(1-Amino-ethyl)-5′-(pyridin-4-ylcarbamoyl)-biphenyl-3-carboxylic acid propyl ester]: the half-inhibitory concentration (IC50) on ROCK II and at ROCKα/ROCKII was less than 100 nM throughout. Consider `CCCOC(=O)c1cccc(-c2cc(C(=O)Nc3ccncc3F)ccc2C(C)N)c1` (stereo not drawn) [Compound 12, 2′-(1-Amino-ethyl)-5′-(3-fluoro-pyridin-4-ylcarbamoyl)-biphenyl-3-carboxylic acid propyl ester], for which the figures for the 50% inhibitory concentration (IC50) at ROCK II and at ROCKα/ROCKII were 100 to 1000 nM and less than 100 nM, respectively. As to `CCCCOC(=O)c1cccc(-c2cc(C(=O)Nc3ccncc3)ccc2C(C)N)c1` (stereo not drawn) [Compound 13, 2′-(1-Amino-ethyl)-5′-(pyridin-4-ylcarbamoyl)-biphenyl-3-carboxylic acid butyl ester], the IC50 on ROCK II and at ROCKα/ROCKII was less than 100 nM throughout.

On to `CC(C)COC(=O)c1cccc(-c2cc(C(=O)Nc3ccncc3F)ccc2C(C)N)c1` (stereo not drawn) [Compound 28, 2′-(1-Amino-ethyl)-5′-(3-fluoro-pyridin-4-ylcarbamoyl)-biphenyl-3-carboxylic acid isobutyl ester], for which the IC50 on ROCK II and on ROCKα/ROCKII was 100 to 1000 nM in each case. Turning to `CC(N)c1ccc(C(=O)Nc2ccncc2F)cc1-c1cccc(C(=O)OCC2CC2)c1` (stereo not drawn) [Compound 37, 2′-(1-Amino-ethyl)-5′-(3-fluoro-pyridin-4-ylcarbamoyl)-biphenyl-3-carboxylic acid cyclopropylmethyl ester], the figures for the half-inhibitory concentration (IC50) at ROCK II and at ROCKα/ROCKII were 100 to 1000 nM and less than 100 nM, respectively. For `CC(N)c1ccc(C(=O)Nc2ccncc2)cc1-c1cccc(C(=O)OCC2CCCO2)c1` (stereo not drawn) [Compound 44, 2′-(1-Amino-ethyl)-5′-(pyridin-4-ylcarbamoyl)-biphenyl-3-carboxylic acid tetrahydro-furan-2-ylmethyl ester], the half-inhibitory concentration (IC50) on ROCK II and on ROCKα/ROCKII was less than 100 nM in each case.

As for `CC(N)c1ccc(C(=O)Nc2ccncc2)cc1-c1cccc(C(=O)OCC2CCCCO2)c1` (stereo not drawn) [Compound 45, 2′-(1-Amino-ethyl)-5′-(pyridin-4-ylcarbamoyl)-biphenyl-3-carboxylic acid tetrahydro-pyran-2-ylmethyl ester], the IC50 on ROCK II and at ROCKα/ROCKII was less than 100 nM throughout. For `CC(N)c1ccc(C(=O)Nc2ccncc2)cc1-c1cccc(C(=O)OCCF)c1` (stereo not drawn) [Compound 60, 2′-(1-Amino-ethyl)-5′-(pyridin-4-ylcarbamoyl)-biphenyl-3-carboxylic acid 2-fluoro-ethyl ester], the figures for the half-inhibitory concentration (IC50) at ROCK II and on ROCKα/ROCKII were 100 to 1000 nM and less than 100 nM, respectively.

On to `CC(N)c1ccc(C(=O)Nc2ccncc2)cc1-c1cccc(C(=O)Oc2ccccc2)c1` (stereo not drawn) [Compound 70, 2′-(1-Amino-ethyl)-5′-(pyridin-4-ylcarbamoyl)-biphenyl-3-carboxylic acid phenyl ester], for which the 50% inhibitory concentration (IC50) at ROCK II and at ROCKα/ROCKII was less than 100 nM each time.

Turning to `CC(N)c1ccc(C(=O)Nc2ccncc2F)cc1-c1cccc(C(=O)Oc2ccccc2)c1` (stereo not drawn) [Compound 71, 2′-(1-Amino-ethyl)-5′-(3-fluoro-pyridin-4-ylcarbamoyl)-biphenyl-3-carboxylic acid phenyl ester], the IC50 on ROCK II and on ROCKα/ROCKII was 100 to 1000 nM throughout. `CC(N)c1ccc(C(=O)Nc2ccncc2)cc1-c1cccc(C(=O)OCCCOc2ccccc2)c1` (stereo not drawn) [Compound 88, 2′-(1-Amino-ethyl)-5′-(pyridin-4-ylcarbamoyl)-biphenyl-3-carboxylic acid 3-phenoxy-propyl ester]: the IC50 was less than 100 nM at ROCK II and 100 to 1000 nM at ROCKα/ROCKII. In the case of `CC(N)c1ccc(C(=O)Nc2ccncc2)cc1-c1cccc(C(=O)OCc2ccoc2)c1` (stereo not drawn) [Compound 90, 2′-(1-Amino-ethyl)-5′-(pyridin-4-ylcarbamoyl)-biphenyl-3-carboxylic acid furan-3-ylmethyl ester], the IC50 was less than 100 nM on ROCK II and 100 to 1000 nM at ROCKα/ROCKII. As to `CC(N)c1ccc(C(=O)Nc2ccncc2)cc1-c1cccc(OCCCSC2CCOC2=O)c1` (stereo not drawn) [Compound 131, 6-(1-Amino-ethyl)-3′-[3-(2-oxo-tetrahydro-furan-3-ylsulfanyl)-propoxy]-biphenyl-3-carboxylylic acid pyridin-4-ylamide], the IC50 on ROCK II and on ROCKα/ROCKII was 100 to 1000 nM throughout. For `CC(N)c1ccc(C(=O)Nc2ccncc2)cc1-c1cccc(OC2CCOC2=O)c1` (stereo not drawn) [Compound 134, 6-(1-Amino-ethyl)-3′-(2-oxo-tetrahydro-furan-3-yloxy)-biphenyl-3-carboxylic acid pyridin-4-ylamide], the IC50 on ROCK II is 100 to 1000 nM; at ROCKα/ROCKII, less than 100 nM. As for `CCSC(=O)COc1cccc(-c2cc(C(=O)Nc3ccncc3)ccc2CN)c1` [Compound 143, [2′-Aminomethyl-5′-(pyridin-4-ylcarbamoyl)-biphenyl-3-yloxy]-thioacetic acid S-ethyl ester], on ROCK II, the IC50 lay within 100 to 1000 nM. In the case of `COC(=O)CNC(=O)COc1cccc(-c2cc(C(=O)Nc3ccncc3)ccc2CN)c1` [Compound 147, {2-[2′-Aminomethyl-5′-(pyridin-4-ylcarbamoyl)-biphenyl-3-yloxy]-acetylamino}-acetic acid methyl ester], the IC50 at ROCK II is less than 100 nM. As for `CCCOC(=O)CCc1cccc(-c2cc(C(=O)Nc3ccncc3)ccc2C(C)N)c1` (stereo not drawn) [Compound 166, 3-[2′-(1-Amino-ethyl)-5′-(pyridin-4-ylcarbamoyl)-biphenyl-3-yl]-propionic acid propyl ester], the IC50 at ROCK II and on ROCKα/ROCKII was 100 to 1000 nM each time. With `CC(N)c1ccc(C(=O)Nc2ccncc2)cc1-c1cccc(CCC(=O)Oc2ccccc2)c1` (stereo not drawn) [Compound 167, 3-[2′-(1-Amino-ethyl)-5′-(pyridin-4-ylcarbamoyl)-biphenyl-3-yl]-propionic acid phenyl ester], the concentration for half-maximal inhibition (IC50) was 100 to 1000 nM at ROCK II and less than 100 nM at ROCKα/ROCKII. As to `COC(=O)c1cc(-c2cc(C(=O)Nc3ccncc3)ccc2C(C)N)c[nH]1` (stereo not drawn) [Compound 168, 4-[2-(1-Amino-ethyl)-5-(pyridin-4-ylcarbamoyl)-phenyl]-1H-pyrrole-2-carboxylic acid methyl ester], the IC50 on ROCK II and at ROCKα/ROCKII was 100 to 1000 nM in each case. On to `CC(N)c1ccc(C(=O)Nc2ccncc2)cc1-c1c[nH]c(C(=O)Oc2ccccc2)c1` (stereo not drawn) [Compound 170, 4-[2-(1-Amino-ethyl)-5-(pyridin-4-ylcarbamoyl)-phenyl]-1H-pyrrole-2-carboxylic acid phenyl ester], for which the values for the IC50 at ROCK II and on ROCKα/ROCKII were 100 to 1000 nM and less than 100 nM, respectively.

`COC(=O)c1cc2c(-c3cc(C(=O)Nc4ccncc4)ccc3C(C)N)cccc2[nH]1` (stereo not drawn) [Compound 171, 4-[2-(1-Amino-ethyl)-5-(pyridin-4-ylcarbamoyl)-phenyl]-1H-indole-2-carboxylic acid methyl ester]: the IC50 at ROCK II is 100 to 1000 nM.

With `NCc1ccc(C(=O)Nc2ccncc2F)cc1-c1cccc(C(=O)OCCF)c1` [Compound 178], the 50% inhibitory concentration (IC50) on ROCK II lay in the range of 100 to 1000 nM. `NCc1ccc(C(=O)Nc2ccncc2F)cc1-c1cccc(C(=O)NC2CCSC2=O)c1` (stereo not drawn) [Compound 179]: the IC50 at ROCK II was in the range of 100 to 1000 nM.

`NCc1ccc(C(=O)Nc2ccncc2F)cc1-c1cccc(C(=O)OCc2ccccc2)c1` [Compound 180]: on ROCK II, the IC50 was in the range of 100 to 1000 nM. For the molecule `NCc1ccc(C(=O)Nc2ccncc2F)cc1-c1cccc(OCC(=O)OCc2ccccc2)c1` [Compound 181], the concentration for half-maximal inhibition (IC50) at ROCK II fell in the range of 1000 to 10000 nM. Regarding `NCc1ccc(C(=O)Nc2ccncc2F)cc1-c1cccc(CC(=O)OCC23CC4CC(CC(C4)C2)C3)c1` [Compound 182], on ROCK II, the IC50 fell in the range of 100 to 1000 nM. Take `NCc1ccc(C(=O)Nc2ccncc2F)cc1-c1cccc(C(=O)OCCO)c1` [Compound 183]: on ROCK II, the IC50 was 100 to 1000 nM. Turning to `NCc1ccc(C(=O)Nc2ccncc2F)cc1-c1cccc(C(=O)OCC2CCC2)c1` [Compound 184], the half-maximal inhibitory concentration (IC50) on ROCK II lay in the range of 100 to 1000 nM. As for `NCc1ccc(C(=O)Nc2ccncc2F)cc1-c1cccc(C(=O)OCC2CCCC2)c1` [Compound 185], at ROCK II, the concentration for half-maximal inhibition (IC50) fell in the range of 100 to 1000 nM.

For the molecule `NCc1ccc(C(=O)Nc2ccncc2F)cc1-c1cccc(C(=O)OCC2CCCO2)c1` (stereo not drawn) [Compound 187], on ROCK II, the half-inhibitory concentration (IC50) is 100 to 1000 nM. Regarding `NCc1ccc(C(=O)Nc2ccncc2F)cc1-c1cccc(C(=O)OCCC23CC4CC(CC(C4)C2)C3)c1` [Compound 189], the half-maximal inhibitory concentration (IC50) at ROCK II was in the range of 100 to 1000 nM.

Take `NCc1ccc(C(=O)Nc2ccncc2F)cc1-c1cccc(OCC(=O)OCC2CCCC2)c1` [Compound 191]: the half-inhibitory concentration (IC50) at ROCK II lay in the range of 100 to 1000 nM. Same read-out and setting: to `NCc1ccc(C(=O)Nc2ccncc2F)cc1-c1cccc(CC(=O)OCCF)c1` [Compound 192] belongs 1000 to 10000 nM; to `N#CCCOC(=O)Cc1cccc(-c2cc(C(=O)Nc3ccncc3F)ccc2CN)c1` [Compound 194], 1000 to 10000 nM; to `NCc1ccc(C(=O)Nc2ccncc2F)cc1-c1cccc(CC(=O)OCCO)c1` [Compound 195], 1000 to 10000 nM.
